According to the NIST ThermoML archive (doi:10.1016/j.fluid.2005.03.028):
Numbers after ± are expanded uncertainties.

Assay: excess molar enthalpy (molar enthalpy of mixing); xn = mol fraction of the nth substance listed
Conditions: 303.15 K, 101.3 kPa, Liquid

SMILES: Cc1cncc(C)c1 [3,5-dimethylpyridine] + CCCCCCC
- excess molar enthalpy (x1 = 0.0712): 0.0951 ± 0.00406 kcal/mol
- excess molar enthalpy (x1 = 0.2287): 0.217 ± 0.00741 kcal/mol
- excess molar enthalpy (x1 = 0.2961): 0.258 ± 0.00884 kcal/mol
- excess molar enthalpy (x1 = 0.3799): 0.281 ± 0.00956 kcal/mol
- excess molar enthalpy (x1 = 0.4475): 0.296 ± 0.01 kcal/mol
- excess molar enthalpy (x1 = 0.497): 0.293 ± 0.0098 kcal/mol
- excess molar enthalpy (x1 = 0.5013): 0.294 ± 0.0098 kcal/mol
- excess molar enthalpy (x1 = 0.5962): 0.283 ± 0.00956 kcal/mol
- excess molar enthalpy (x1 = 0.6871): 0.249 ± 0.00837 kcal/mol
- excess molar enthalpy (x1 = 0.7428): 0.219 ± 0.00741 kcal/mol
- excess molar enthalpy (x1 = 0.85): 0.137 ± 0.00526 kcal/mol

SMILES: Cc1cncc(C)c1 [3,5-dimethylpyridine] + CCCCCCCC
- excess molar enthalpy (x1 = 0.1056): 0.133 ± 0.00502 kcal/mol
- excess molar enthalpy (x1 = 0.2504): 0.24 ± 0.00813 kcal/mol
- excess molar enthalpy (x1 = 0.3971): 0.294 ± 0.0098 kcal/mol
- excess molar enthalpy (x1 = 0.4266): 0.301 ± 0.01 kcal/mol
- excess molar enthalpy (x1 = 0.4971): 0.304 ± 0.0103 kcal/mol
- excess molar enthalpy (x1 = 0.5313): 0.305 ± 0.0103 kcal/mol
- excess molar enthalpy (x1 = 0.5417): 0.303 ± 0.01 kcal/mol
- excess molar enthalpy (x1 = 0.6032): 0.293 ± 0.0098 kcal/mol
- excess molar enthalpy (x1 = 0.7289): 0.237 ± 0.00813 kcal/mol
- excess molar enthalpy (x1 = 0.8127): 0.184 ± 0.00645 kcal/mol
- excess molar enthalpy (x1 = 0.914): 0.0915 ± 0.00406 kcal/mol

SMILES: Cc1cccc(C)n1 [2,6-dimethylpyridine] + CCCCCCCC
- excess molar enthalpy (x1 = 0.108): 0.12 ± 0.00478 kcal/mol
- excess molar enthalpy (x1 = 0.199): 0.172 ± 0.00621 kcal/mol
- excess molar enthalpy (x1 = 0.202): 0.182 ± 0.00645 kcal/mol
- excess molar enthalpy (x1 = 0.346): 0.233 ± 0.00789 kcal/mol
- excess molar enthalpy (x1 = 0.413): 0.246 ± 0.00837 kcal/mol
- excess molar enthalpy (x1 = 0.506): 0.251 ± 0.0086 kcal/mol
- excess molar enthalpy (x1 = 0.597): 0.246 ± 0.00837 kcal/mol
- excess molar enthalpy (x1 = 0.698): 0.217 ± 0.00741 kcal/mol
- excess molar enthalpy (x1 = 0.708): 0.208 ± 0.00717 kcal/mol

SMILES: Cc1cccc(C)n1 [2,6-dimethylpyridine] + CCCCCC
- excess molar enthalpy (x1 = 0.1061): 0.1 ± 0.0043 kcal/mol
- excess molar enthalpy (x1 = 0.2206): 0.171 ± 0.00598 kcal/mol
- excess molar enthalpy (x1 = 0.2931): 0.202 ± 0.00693 kcal/mol
- excess molar enthalpy (x1 = 0.3822): 0.215 ± 0.00741 kcal/mol
- excess molar enthalpy (x1 = 0.4338): 0.221 ± 0.00765 kcal/mol
- excess molar enthalpy (x1 = 0.4341): 0.22 ± 0.00765 kcal/mol
- excess molar enthalpy (x1 = 0.4507): 0.226 ± 0.00765 kcal/mol
- excess molar enthalpy (x1 = 0.5516): 0.223 ± 0.00765 kcal/mol
- excess molar enthalpy (x1 = 0.6172): 0.215 ± 0.00741 kcal/mol
- excess molar enthalpy (x1 = 0.7034): 0.191 ± 0.00669 kcal/mol
- excess molar enthalpy (x1 = 0.7949): 0.141 ± 0.00526 kcal/mol
- excess molar enthalpy (x1 = 0.884): 0.0844 ± 0.00382 kcal/mol

SMILES: Cc1cccc(C)n1 [2,6-dimethylpyridine] + CCCCCCC
- excess molar enthalpy (x1 = 0.1137): 0.114 ± 0.00454 kcal/mol
- excess molar enthalpy (x1 = 0.1939): 0.16 ± 0.00574 kcal/mol
- excess molar enthalpy (x1 = 0.26): 0.194 ± 0.00669 kcal/mol
- excess molar enthalpy (x1 = 0.313): 0.211 ± 0.00717 kcal/mol
- excess molar enthalpy (x1 = 0.318): 0.216 ± 0.00741 kcal/mol
- excess molar enthalpy (x1 = 0.365): 0.226 ± 0.00765 kcal/mol
- excess molar enthalpy (x1 = 0.4264): 0.237 ± 0.00813 kcal/mol
- excess molar enthalpy (x1 = 0.46): 0.241 ± 0.00813 kcal/mol
- excess molar enthalpy (x1 = 0.5077): 0.242 ± 0.00813 kcal/mol
- excess molar enthalpy (x1 = 0.58): 0.227 ± 0.00789 kcal/mol
- excess molar enthalpy (x1 = 0.7064): 0.202 ± 0.00693 kcal/mol
- excess molar enthalpy (x1 = 0.7851): 0.165 ± 0.00598 kcal/mol
- excess molar enthalpy (x1 = 0.857): 0.123 ± 0.00478 kcal/mol

SMILES: Cc1cncc(C)c1 [3,5-dimethylpyridine] + CCCCCC
- excess molar enthalpy (x1 = 0.1064): 0.137 ± 0.00526 kcal/mol
- excess molar enthalpy (x1 = 0.1889): 0.201 ± 0.00693 kcal/mol
- excess molar enthalpy (x1 = 0.314): 0.259 ± 0.00884 kcal/mol
- excess molar enthalpy (x1 = 0.434): 0.275 ± 0.00932 kcal/mol
- excess molar enthalpy (x1 = 0.5119): 0.278 ± 0.00932 kcal/mol
- excess molar enthalpy (x1 = 0.6092): 0.26 ± 0.00884 kcal/mol
- excess molar enthalpy (x1 = 0.7259): 0.214 ± 0.00741 kcal/mol
- excess molar enthalpy (x1 = 0.775): 0.191 ± 0.00669 kcal/mol
- excess molar enthalpy (x1 = 0.8934): 0.0978 ± 0.0043 kcal/mol
- excess molar enthalpy (x1 = 0.9495): 0.0492 ± 0.00311 kcal/mol
